The values that follow come from ChEMBL document CHEMBL1131837, “Synthesis of new (benzimidazolyl)piperazines with affinity for the 5-HT1A receptor via Pd(0) amination of bromobenzimidazoles” (Bioorg Med Chem Lett, 1999).

For orientation: Ki means a dissociation constant, usually derived from enzyme kinetics or from competition with a known ligand. The low end stands for tighter binding, the high end for weaker binding.

In experiment [1] the target is T1, 5-hydroxytryptamine receptor 1A (Rattus norvegicus, UniProt P19327).
T1 sequence (P19327 whole entry): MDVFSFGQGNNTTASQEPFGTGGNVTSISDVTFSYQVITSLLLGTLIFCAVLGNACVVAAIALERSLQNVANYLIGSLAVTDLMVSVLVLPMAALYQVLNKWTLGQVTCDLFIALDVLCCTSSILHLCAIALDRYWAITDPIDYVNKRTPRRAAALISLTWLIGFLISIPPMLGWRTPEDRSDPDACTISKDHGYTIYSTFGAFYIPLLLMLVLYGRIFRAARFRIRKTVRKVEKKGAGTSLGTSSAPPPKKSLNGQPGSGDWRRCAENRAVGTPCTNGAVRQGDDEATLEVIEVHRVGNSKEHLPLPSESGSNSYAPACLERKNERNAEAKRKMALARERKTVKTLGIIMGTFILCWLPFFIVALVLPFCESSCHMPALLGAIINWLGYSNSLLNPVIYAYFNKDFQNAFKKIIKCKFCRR
Description: In vitro binding affinity towards 5-hydroxytryptamine 1A receptor was determined using [3H]8-OH-DPAT as radioligand in rat cerebral cortex membranes; […]. Type of experiment: cell membranes.

For experiment [2], the target named is T1, 5-hydroxytryptamine receptor 1A. The experiment in a line: In vitro binding affinity towards 5-hydroxytryptamine 1A receptor was determined using [3H]8-OH-DPAT as radioligand in rat cerebral cortex membranes. Type of experiment: cell membranes, Membrane.

As for `c1ccc(C(c2ccccc2)(c2ccccc2)n2cnc3c(N4CCNCC4)cccc32)cc1`, the Ki result in experiment [1] is recorded as “Not Active”.

Take `O=C1C2CCCN2C(=O)N1CCCCN1CCN(c2cccc3[nH]cnc23)CC1` (centres undefined): the Ki in experiment [2] worked out at 1.21 nM.

Compound `CN1CCN(c2cccc3[nH]cnc23)CC1` showed a Ki in experiment [2] of 4.72 nM.

For `CN1CCN(c2cccc3c2ncn3C(c2ccccc2)(c2ccccc2)c2ccccc2)CC1`, the inhibition constant Ki entry in experiment [1] was “Not Active”.
